Assay results from patent publication US8835644B2, “Broad spectrum benzothiophene-nitrothiazolide and other antimicrobials” (University of Virginia Patent Foundation, priority 2009, dated 2014).
Converted amounts (≈) assume the structure as drawn. Read-outs that look alike come from different tables or passages of the source.

Assays:
H. pylori = experiment: MIC testing by broth dilution, H. pylori; format: cell-based, Helicobacter pylori
Procedure, shortened: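 Broth dilution MIC determination against H. pylori: a standard inoculum in 100 microliters of Brain Heart Infusion medium was placed in 96 well microplates. Test compounds began at 32 μg/ml in 200 microliters in well one and were serially diluted over a 32 to 0.06 range. After 24 h, plates were scored by eye and the first well without growth was recorded as the MIC.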

C. jejuni = experiment: MIC testing by broth dilution, C. jejuni; format: cell-based, Campylobacter jejuni
Procedure, shortened: (§1)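 Values are broth-dilution MICs, defined as the well showing no growth on visual reading after 24 h; the tested range was 32 to 0.06 μg/ml, in organism-specific media (LB, Trypticase Soy, Brain Heart Infusion). The C. difficile entries come instead from anaerobic Kirby-Bauer disk zones, normalised to NTZ.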

MRSA = experiment: MIC testing by broth dilution, MRSA; format: cell-based, Staphylococcus aureus
Procedure, shortened: as §1

S. epidermidis = experiment: MIC testing by broth dilution, S. epidermidis plank; format: cell-based, Staphylococcus epidermidis
Procedure, shortened: as §1

S. epidermidis biofilm = S. epidermidis biofilm assay (activity tables); format: cell-based, Staphylococcus epidermidis
Protocol: Staphylococcal strains were cultured overnight in TSB at 37° C. with shaking, diluted in fresh medium to an OD600 of 0.01 and 200 W was dispensed into sterile flat bottom polystyrene 96 well microtiter plates (Costar 3596, Corning Inc.). […] Each compound and dilution was tested in triplicate. The plates were incubated overnight at 37° C. in a humidified incubator, without shaking and both growth and biofilm accumulation were determined at 16 h.
Following recording of turbidities, the culture medium was aspirated and the wells were washed three times with distilled water, blotted on paper towels, and fixed with 75% ethanol for 10 minutes.
To visualize biofilm material, 0.5% crystal violet was added to each well and after 5 minutes was removed and the wells washed three times with distilled water. Plates were read using a microplate reader at a wavelength of 570 nm. The dye was then extracted by adding 200 W of 95% ethanol, and the absorbance was read again at 570 nm. All assays were performed in triplicate and the mean and standard deviation determined. […]
(§2) Representative compounds of the invention were tested in a series of assays against a series of organisms as described above. […] The organisms tested include, C. difficile, H. pylori, C. jejuni, MRSA, S. epidermidis, and E. coli. S. epidermidis and E. coli were tested in the plank and biofilm assay. A disk diffusion assay was also used for C. difficile. Direct PFOR enzyme assays were also performed. All analogues and derivatives were not tested on every organism in every type of assay (the “-” in each table means that it was not tested).

E. coli = experiment: MIC testing by broth dilution, E. coli plank; format: cell-based, Escherichia coli
Procedure, shortened: as §1

E. coli biofilm = E. coli biofilm assay (activity tables); format: cell-based, Escherichia coli
Procedure, shortened: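 After 24 h static culture at 37 °C in wells containing NTZ, strain 042 (1:100 inoculum) biofilm was quantified by 0.5% crystal violet absorbance at 570 nm. Planktonic growth was taken from turbidity or LB plate counts as cfu/ml; all runs triplicate, reported as mean and SD.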

C. difficile = experiment: Disk diffusion (Kirby Bower), C. difficile; format: cell-based, Clostridium difficile; details: Nitazoxanide = 100
Protocol: A standard broth dilution protocol was used in 96 well microplates containing a standard dilution of the microorganism to be tested in 100 microliters of the appropriate medium. Appropriate medium: E. coli, LB medium; Staphylococcus strains, Trypticase Soy; and for H. pylori and C. jejuni, Brain Heart Infusion. The compounds to be tested were set at 32 μg/ml in 200 microliters in well one and then serially diluted to provide a range from 32 to 0.06. The wells were scored visually at 24 h. The well where there was no growth was recorded as the MIC. Clostridium difficile was tested by agar diffusion and disk diffusion (Kirby Bower) methods under anaerobic conditions on Wilkins Chalgrin agar. In these assays, zone of inhibited growth was measured and compared by relative ratio to the zone recorded for NTZ.
as §2

Molecule `O=C(Nc1ccc(F)cc1)Nc1ncc([N+](=O)[O-])s1` [VPC161267] has an MIC (H. pylori; Helicobacter pylori, broth dilution, Brain Heart Infusion, 24 h, read-out: MIC (μM) H. pylori) of 0.9 µM (≈ 0.254 µg/mL), an MIC (C. jejuni; Campylobacter jejuni, broth dilution, Brain Heart Infusion, 24 h, read-out: MIC (μM) C. jejuni) of 21.3 µM (≈ 6.01 µg/mL) and an MIC (MRSA; Staphylococcus aureus, MRSA, broth dilution, Trypticase Soy, 24 h, read-out: MIC (μM) MRSA) of 56.7 µM (≈ 16 µg/mL). For the same molecule, the MIC (S. epidermidis; Staphylococcus epidermidis, broth dilution, Trypticase Soy, 24 h, read-out: MIC (μM) S. epidermidis Plank) was 28.3 µM (≈ 7.99 µg/mL), the “MIC (μM) S. epidermidis Biofilm” value (S. epidermidis biofilm) was 28.3 µM (≈ 7.99 µg/mL) and the MIC (E. coli; Escherichia coli, broth dilution, LB medium, 24 h, read-out: MIC (μM) E. coli Plank) was 113 µM (≈ 32 µg/mL). For the same molecule, the MIC (E. coli biofilm; Escherichia coli; read-out: MIC (μM) E. coli Biofilm) was 56.7 µM (≈ 16 µg/mL).
`O=C(CCCC(=O)Nc1ncc([N+](=O)[O-])s1)Nc1ncc([N+](=O)[O-])s1` [VPC161276, N^1,N^5-Bis(5-nitrothiazol-2-yl)glutaramide] gave an MIC (H. pylori; Helicobacter pylori, 24 h, read-out: MIC (μM) H. pylori) of 5.2 µM (≈ 2.01 µg/mL), an MIC (C. jejuni; Campylobacter jejuni, 24 h, read-out: MIC (μM) C. jejuni) of 31.1 µM (≈ 12 µg/mL) and an MIC (MRSA; Staphylococcus aureus, MRSA, 24 h, read-out: MIC (μM) MRSA) of 82.8 µM (≈ 32 µg/mL). The MIC (S. epidermidis; Staphylococcus epidermidis, 24 h, read-out: MIC (μM) S. epidermidis Plank) was 82.8 µM (≈ 32 µg/mL), the “MIC (μM) S. epidermidis Biofilm” value (S. epidermidis biofilm) was 1.3 µM (≈ 0.502 µg/mL) and the MIC (E. coli; Escherichia coli, 24 h, read-out: MIC (μM) E. coli Plank) was 82.8 µM (≈ 32 µg/mL). It also gave an MIC (E. coli biofilm; Escherichia coli, read-out: MIC (μM) E. coli Biofilm) of 82.8 µM (≈ 32 µg/mL).
In the case of `Cc1ncc([N+](=O)[O-])n1CCOC(=O)CCCC(=O)Nc1ncc([N+](=O)[O-])s1` [VPC161277], the MIC (H. pylori; broth dilution, Brain Heart Infusion, 24 h, read-out: MIC (μM) H. pylori) is reported as 1.8 µM (≈ 0.742 µg/mL), the MIC (C. jejuni; broth dilution, Brain Heart Infusion, 24 h, read-out: MIC (μM) C. jejuni) is reported as 29.1 µM (≈ 12 µg/mL) and the MIC (MRSA; broth dilution, Trypticase Soy, 24 h, read-out: MIC (μM) MRSA) is reported as 77.6 µM (≈ 32 µg/mL). The MIC (S. epidermidis; broth dilution, Trypticase Soy, 24 h, read-out: MIC (μM) S. epidermidis Plank) was 77.6 µM (≈ 32 µg/mL), the “MIC (μM) S. epidermidis Biofilm” value (S. epidermidis biofilm) was 2.4 µM (≈ 0.99 µg/mL) and the MIC (E. coli; broth dilution, LB medium, 24 h, read-out: MIC (μM) E. coli Plank) was 77.6 µM (≈ 32 µg/mL). It also gave an MIC (E. coli biofilm; biofilm; read-out: MIC (μM) E. coli Biofilm) of 77.6 µM (≈ 32 µg/mL).
With `O=C(Nc1ncc([N+](=O)[O-])s1)c1ncc([N+](=O)[O-])s1` [VPC161280] the MIC (H. pylori; Thiophene analogues table, read-out: MIC H. pylori) was 6.6 µM (≈ 1.99 µg/mL), the MIC (C. jejuni; Thiophene analogues table, read-out: MIC C. jejuni) was 13.3 µM (≈ 4.01 µg/mL) and the MIC (MRSA; Thiophene analogues table, read-out: MIC MRSA) was 53.1 µM (≈ 16 µg/mL). For the same molecule, the MIC (S. epidermidis; planktonic, Thiophene analogues table, read-out: MIC S. epidermidis Plank) was 5.0 µM (≈ 1.51 µg/mL), the “MIC S. epidermidis Biofilm” value (S. epidermidis biofilm; Thiophene analogues table) was 6.6 µM (≈ 1.99 µg/mL) and the MIC (E. coli; planktonic, Thiophene analogues table, read-out: MIC E. coli Plank) was 39.8 µM (≈ 12 µg/mL). It also gave an MIC (E. coli biofilm; biofilm; Thiophene analogues table; read-out: MIC E. coli Biofilm) of 3.3 µM (≈ 0.994 µg/mL).
`O=C(Nc1ncc([N+](=O)[O-])s1)c1ccc(Br)o1` [VPC161281, 5-Bromo-N-(5-nitrothiazol-2-yl)furan-2-carboxamide] showed an MIC (H. pylori; Helicobacter pylori, Furan analogues table, read-out: MIC H. pylori) of 1.6 µM (≈ 0.509 µg/mL), an MIC (C. jejuni; Campylobacter jejuni, Furan analogues table, read-out: MIC C. jejuni) of 12.6 µM (≈ 4.01 µg/mL) and an MIC (MRSA; Staphylococcus aureus, MRSA, Furan analogues table, read-out: MIC MRSA) of 6.3 µM (≈ 2 µg/mL). For the same molecule, the MIC (S. epidermidis; Staphylococcus epidermidis, planktonic, Furan analogues table, read-out: MIC S. epidermidis Plank) was 25.1 µM (≈ 7.98 µg/mL), the “MIC S. epidermidis Biofilm” value (S. epidermidis biofilm; Furan analogues table) was 50.3 µM (≈ 16 µg/mL) and the MIC (E. coli; Escherichia coli, planktonic, Furan analogues table, read-out: MIC E. coli Plank) was 101 µM (≈ 32 µg/mL). For the same molecule, the MIC (E. coli biofilm; Escherichia coli; biofilm; Furan analogues table; read-out: MIC E. coli Biofilm) was 0.4 µM (≈ 0.127 µg/mL) and the “Disk Diff (%) C. difficile” value (C. difficile; Furan analogues table) was 92%.
`O=C(Nc1ncc([N+](=O)[O-])s1)c1ccc(Br)s1` [VPC161282, 5-Bromo-N-(5-nitrothiazol-2-yl)thiophene-2-carboxamide] showed an MIC (H. pylori; Helicobacter pylori, Thiophene analogues table, read-out: MIC H. pylori) of 3 µM (≈ 1 µg/mL), an MIC (C. jejuni; Campylobacter jejuni, Thiophene analogues table, read-out: MIC C. jejuni) of 9.9 µM (≈ 3.31 µg/mL) and an MIC (MRSA; Staphylococcus aureus, MRSA, Thiophene analogues table, read-out: MIC MRSA) of 4.5 µM (≈ 1.5 µg/mL). The MIC (S. epidermidis; Staphylococcus epidermidis, planktonic, Thiophene analogues table, read-out: MIC S. epidermidis Plank) was 23.9 µM (≈ 7.99 µg/mL), the “MIC S. epidermidis Biofilm” value (S. epidermidis biofilm; Thiophene analogues table) was 47.9 µM (≈ 16 µg/mL) and the MIC (E. coli; Escherichia coli, planktonic, Thiophene analogues table, read-out: MIC E. coli Plank) was 95.8 µM (≈ 32 µg/mL). For the same molecule, the MIC (E. coli biofilm; Escherichia coli; biofilm; Thiophene analogues table; read-out: MIC E. coli Biofilm) was 0.1 µM (≈ 0.0334 µg/mL) and the “Disk Diff (%) C. difficile” value (C. difficile; Thiophene analogues table) was 90%.
